Assay: Moisture-sorption isotherm (VTI SGA-100 Symmetric Vapor Analyzer)
Assay type: physicochemical
Conditions: range from about 25% RH to about 75% RH at 25° C.; FIG. 8
Procedure: 10. Moisture-sorption isotherms were collected in a VTI SGA-100 Symmetric Vapor Analyzer using approximately 10 mg of sample. The sample was dried at 60° C. until the loss rate of 0.0005 wt %/min was obtained for 10 minutes. The sample was tested at 25° C. and 3 or 4, 5, 15, 25, 35, 45, 50, 65, 75, 85, and 95% RH. Equilibration at each RH was reached when the rate of 0.0003 wt %/min for 35 minutes was achieved or a maximum of 600 minutes.

## O=C(C(=O)N1CCN(C(=O)c2ccccc2)CC1)c1c[nH]c2c(-n3ccnn3)ncc(F)c12
  weight gain / weight water uptake (moisture-sorption isotherm): about 0.1%
